# In PMC4802617 (Chinese Medicine, 2016):
# Several values for one entry are separate records, joined by “and”; a condition that tells them apart may be missing. Equal entries are not always repeated. Entries after “also recorded” stand apart in the source; their conditions may differ. Structures can show the parent of a compound that is named as a salt. Where two headings read alike, the source gives them in different places.
# Key:
# [1] = biological target: T1, CYP2E1 (Homo sapiens, UniProt P05181); details: CYP2E1 ref 28; read-out: Ki, specific inhibitor/reported values; cited from earlier work
# T1 construct: tissue Cypex Ltd. (UK); host or cells: pooled human liver microsomes, ten donors
# [2] = Kinetic analysis of STS metabolism by human liver microsomes; assay type: in vitro ADME
# Method: (§1) The CYP isoform-specific probe reactions used were phenacetin O-deethylation (for CYP1A2), coumarin 7-hydroxylation (for CYP2A6), tolbutamide 4-hydroxylation (for CYP2C9), metoprolol α-hydroxylation (for CYP2D6), chlorzoxazone 6-hydroxylation (for CYP2E1), S-mephenytoin 4-hydroxylation (for CYP2C19), and midazolam 1-hydroxylation (for CYP3A4). […] Each reaction was initiated by addition of 1 mg/mL NADPH. The final incubations were performed in a shaking water bath at 37 °C for 30 min. The incubations were performed in triple, and the incubation conditions specific to each CYP isoform were within the linear range for the velocity of the reaction (incubation time as well as substrate and protein concentrations). […] The reactions were stopped by adding 0.2 mL of ice-cold acetonitrile containing irbesartan (114.9 ng/mL) as the internal standard. The samples were vortexed for 5 min. After centrifugation (5415D centrifuge, Eppendorf, Germany) (12,000×g for 10 min), the supernatants were transferred and aliquots of 20 µL were injected into the HPLC–MS/MS system for analysis.
# The incubation conditions consisted of substrate probe, HLMs (0.5 mg/mL) or CYP isoforms (10 pmol), and 0.1 M sodium phosphate buffer (pH 7.4) in a total volume of 0.2 mL. […] All values were expressed as the mean ± standard deviation (SD). The mean intrinsic clearance rate (CLint) for the in vitro incubation was estimated by Vmax/Km.
# (§2) Values of P < 0.05 denoted significance in all cases. […] The activity of each CYP isoform was calculated by the MCR of its corresponding probe substrate to determine the inhibition of the CYP isoforms. […] The IC50 values were determined by analyzing the plot of the logarithm of the inhibitor concentration versus the percentage of activity remaining after inhibition, using the SPSS for Windows Version 11.5 (SPSS Inc., USA). The inhibition data were fitted to different models of enzyme inhibition (competitive, noncompetitive, and uncompetitive) by nonlinear least-squares regression analysis using GraphPad Prism 5 software (GraphPad Co. Ltd., USA) to calculate the Ki values.
# [3] = biological target: T2, CYP3A4 (Homo sapiens, UniProt P08684); assay: Kinetic analysis of STS metabolism by recombinant CYP3A4; assay type: in vitro ADME
# Method: The CYP isoform-specific probe reactions used were phenacetin O-deethylation (for CYP1A2), coumarin 7-hydroxylation (for CYP2A6), tolbutamide 4-hydroxylation (for CYP2C9), metoprolol α-hydroxylation (for CYP2D6), chlorzoxazone 6-hydroxylation (for CYP2E1), S-mephenytoin 4-hydroxylation (for CYP2C19), and midazolam 1-hydroxylation (for CYP3A4). […] Each reaction was initiated by addition of 1 mg/mL NADPH. The final incubations were performed in a shaking water bath at 37 °C for 30 min. The incubations were performed in triple, and the incubation conditions specific to each CYP isoform were within the linear range for the velocity of the reaction (incubation time as well as substrate and protein concentrations). […]
# The incubation conditions consisted of substrate probe, HLMs (0.5 mg/mL) or CYP isoforms (10 pmol), and 0.1 M sodium phosphate buffer (pH 7.4) in a total volume of 0.2 mL. […] All values were expressed as the mean ± standard deviation (SD). […]
# (§3) Values of P < 0.05 denoted significance in all cases. […] The activity of each CYP isoform was calculated by the MCR of its corresponding probe substrate to determine the inhibition of the CYP isoforms. […] The IC50 values were determined by analyzing the plot of the logarithm of the inhibitor concentration versus the percentage of activity remaining after inhibition, using the SPSS for Windows Version 11.5 (SPSS Inc., USA). […]
# [4] = biological target: T3, CYP2A6 (Homo sapiens, UniProt P11509); assay: Inhibition of coumarin 7-hydroxylation in HLMs; assay type: in vitro ADME
# T3 construct: tissue Cypex Ltd. (UK); host or cells: pooled human liver microsomes, ten donors
# T3 sequence (P11509 1-494): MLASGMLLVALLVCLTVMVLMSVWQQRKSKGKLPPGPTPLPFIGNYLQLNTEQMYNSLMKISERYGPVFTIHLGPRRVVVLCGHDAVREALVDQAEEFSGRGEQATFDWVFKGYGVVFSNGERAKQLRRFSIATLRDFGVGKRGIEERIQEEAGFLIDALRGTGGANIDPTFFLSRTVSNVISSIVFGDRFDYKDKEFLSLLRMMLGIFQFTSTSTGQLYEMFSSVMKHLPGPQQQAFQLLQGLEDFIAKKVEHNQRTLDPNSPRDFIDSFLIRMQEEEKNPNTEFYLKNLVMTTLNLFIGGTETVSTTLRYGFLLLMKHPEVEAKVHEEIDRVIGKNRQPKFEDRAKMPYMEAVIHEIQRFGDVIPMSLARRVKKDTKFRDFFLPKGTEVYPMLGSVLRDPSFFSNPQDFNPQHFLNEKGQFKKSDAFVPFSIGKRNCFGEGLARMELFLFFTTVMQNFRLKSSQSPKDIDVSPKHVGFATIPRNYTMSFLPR
# Method: as §1
# (§4) A pilot inhibitory analysis of each CYP isoform was performed to determine the potency of inhibition and to select CYP isoforms for further detailed study of their inhibitory activities. […] The substrates comprising phenacetin, coumarin, tolbutamide, metoprolol, chlorzoxazone, S-mephenytoin, and midazolam were employed at concentrations of 10, 5, 100, 7.5, 40, 100, and 5 µM, respectively. All incubation conditions were the same as those described above.
# as §3
# [5] = biological target: T4, CYP2C9 (Homo sapiens, UniProt P11712); assay: Inhibition of tolbutamide 4-hydroxylation in HLMs; assay type: in vitro ADME
# T4 construct: tissue Cypex Ltd. (UK); host or cells: pooled human liver microsomes, ten donors
# Method: as §1, §4, §3
# [6] = biological target: T5, CYP2D6 (Homo sapiens, UniProt P10635); assay: Inhibition of metoprolol α-hydroxylation in HLMs; assay type: in vitro ADME
# T5 construct: tissue Cypex Ltd. (UK); host or cells: pooled human liver microsomes, ten donors
# Method: as §1, §4, §3
# [7] = biological target: T1, CYP2E1; assay: Inhibition of chlorzoxazone 6-hydroxylation in HLMs; assay type: in vitro ADME
# Method: as §1, §4, §3
# [8] = biological target: T6, CYP2C19 (Homo sapiens, UniProt P33261); assay: Inhibition of S-mephenytoin 4-hydroxylation in HLMs; assay type: in vitro ADME
# T6 construct: tissue Cypex Ltd. (UK); host or cells: pooled human liver microsomes, ten donors
# Method: as §1, §4, §3
# [9] = Effects of specific CYP inhibitors on metabolic clearance rate (MCR) of STS in HLMs; assay type: in vitro ADME, human; details: STS 10 µM, in the presence of KET 1 µM
# [10] = biological target: T2, CYP3A4; assay: MCR of STS with recombinant CYP3A4 under inhibition by KET; assay type: in vitro ADME; details: KET 1 µM
# [11] = rats, cited from earlier work
# [12] = rats, intravenous 2 mg/kg, cited from earlier work
# [13] = biological target: T7, CYP1A2 (Homo sapiens, UniProt P05177); details: in vivo; cited from earlier work
# T7 sequence (P05177 1-516): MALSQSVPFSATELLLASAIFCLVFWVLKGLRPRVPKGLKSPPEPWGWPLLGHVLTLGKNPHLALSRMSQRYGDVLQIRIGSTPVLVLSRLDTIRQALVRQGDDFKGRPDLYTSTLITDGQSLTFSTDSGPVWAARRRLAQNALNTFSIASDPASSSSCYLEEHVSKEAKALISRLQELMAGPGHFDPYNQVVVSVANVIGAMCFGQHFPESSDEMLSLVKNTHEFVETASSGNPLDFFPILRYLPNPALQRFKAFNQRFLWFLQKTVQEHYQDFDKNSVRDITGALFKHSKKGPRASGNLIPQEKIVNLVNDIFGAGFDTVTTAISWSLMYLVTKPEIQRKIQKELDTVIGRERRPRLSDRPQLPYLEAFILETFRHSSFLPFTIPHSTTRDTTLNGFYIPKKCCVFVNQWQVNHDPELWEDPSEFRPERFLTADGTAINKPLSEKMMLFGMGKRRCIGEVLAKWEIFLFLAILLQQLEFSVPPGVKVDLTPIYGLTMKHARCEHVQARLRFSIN
# [14] = biological target: T7, CYP1A2; assay: Inhibition of phenacetin O-deethylation in HLMs; assay type: in vitro ADME; design: tissue Cypex Ltd. (UK); host or cells: pooled human liver microsomes, ten donors
# Method: as §1, §4, §3
# [15] = biological target: T2, CYP3A4; assay: Inhibition of midazolam 1-hydroxylation in HLMs (IC50, Ki, Dixon plots); assay type: in vitro ADME; design: tissue Cypex Ltd. (UK); host or cells: pooled human liver microsomes, ten donors
# Method: as §1, §4
# Therefore, Dixon plots for the inhibition of CYP3A4 were determined by incubating the substrate probe at multiple concentrations with or without the test inhibitor at multiple concentrations with the HLMs and cofactors. The inhibition data obtained from the pilot experiments were used as a guide to generate appropriate probe substrate and test inhibitor concentrations for determination of the Ki values for each CYP isoform. The isoform-specific probe substrate concentrations used were 5–50 µM midazolam for CYP3A4.
# as §2
# [16] = tested on: human CYP1A2 isoform; details: specific human CYP1A2 isoform, competitive ref 32; cited from earlier work
# [17] = biological target: T4, CYP2C9; details: cited from earlier work
# [18] = biological target: T7, CYP1A2; design: tissue Cypex Ltd. (UK); host or cells: pooled human liver microsomes, ten donors; details: CYP1A2, pooled HLMs, competitive ref 32; cited from earlier work
# [19] = classification of Kong et al., read-out: potency class of inhibitor by IC50
# T5 sequence (P10635 whole entry): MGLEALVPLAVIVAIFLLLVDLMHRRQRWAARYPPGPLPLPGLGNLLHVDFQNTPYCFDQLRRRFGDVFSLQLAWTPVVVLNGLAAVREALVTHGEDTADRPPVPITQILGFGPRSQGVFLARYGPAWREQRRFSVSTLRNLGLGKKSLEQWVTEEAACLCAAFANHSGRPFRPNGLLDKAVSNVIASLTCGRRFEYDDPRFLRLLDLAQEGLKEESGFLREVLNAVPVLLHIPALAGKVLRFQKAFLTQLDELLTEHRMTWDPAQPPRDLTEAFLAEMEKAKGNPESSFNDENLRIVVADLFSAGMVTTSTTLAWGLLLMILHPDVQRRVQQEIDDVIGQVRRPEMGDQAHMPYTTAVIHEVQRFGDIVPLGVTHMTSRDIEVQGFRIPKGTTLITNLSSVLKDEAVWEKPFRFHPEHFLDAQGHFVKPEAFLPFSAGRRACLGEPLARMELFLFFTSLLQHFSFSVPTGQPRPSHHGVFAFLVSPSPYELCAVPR
# T2 sequence (P08684 whole entry, canonical isoform): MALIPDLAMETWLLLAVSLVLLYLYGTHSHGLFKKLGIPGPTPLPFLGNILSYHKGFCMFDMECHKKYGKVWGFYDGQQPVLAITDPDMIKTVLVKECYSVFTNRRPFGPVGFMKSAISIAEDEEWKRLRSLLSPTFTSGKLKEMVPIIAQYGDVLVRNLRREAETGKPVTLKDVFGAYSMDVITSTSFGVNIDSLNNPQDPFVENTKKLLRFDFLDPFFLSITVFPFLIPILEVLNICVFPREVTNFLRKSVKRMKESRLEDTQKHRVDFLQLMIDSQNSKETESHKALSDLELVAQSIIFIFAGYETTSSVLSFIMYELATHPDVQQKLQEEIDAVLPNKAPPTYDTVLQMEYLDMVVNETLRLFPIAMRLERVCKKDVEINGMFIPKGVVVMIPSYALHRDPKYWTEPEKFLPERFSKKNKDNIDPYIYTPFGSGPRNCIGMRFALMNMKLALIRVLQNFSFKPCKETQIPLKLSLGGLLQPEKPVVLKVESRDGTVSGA
# T4 sequence (P11712 whole entry): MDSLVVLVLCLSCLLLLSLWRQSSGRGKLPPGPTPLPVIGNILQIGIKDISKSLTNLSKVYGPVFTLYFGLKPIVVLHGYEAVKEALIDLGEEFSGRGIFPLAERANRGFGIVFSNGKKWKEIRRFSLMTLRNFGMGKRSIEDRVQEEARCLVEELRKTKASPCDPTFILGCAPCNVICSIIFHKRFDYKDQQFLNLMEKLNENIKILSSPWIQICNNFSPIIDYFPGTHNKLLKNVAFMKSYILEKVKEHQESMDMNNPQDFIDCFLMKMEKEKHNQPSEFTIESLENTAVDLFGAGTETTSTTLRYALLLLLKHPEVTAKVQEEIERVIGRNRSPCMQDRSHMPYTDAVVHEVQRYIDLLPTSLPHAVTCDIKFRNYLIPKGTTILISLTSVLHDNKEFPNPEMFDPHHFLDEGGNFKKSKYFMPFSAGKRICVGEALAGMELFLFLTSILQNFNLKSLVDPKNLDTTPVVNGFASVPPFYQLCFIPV
# T6 sequence (P33261 whole entry): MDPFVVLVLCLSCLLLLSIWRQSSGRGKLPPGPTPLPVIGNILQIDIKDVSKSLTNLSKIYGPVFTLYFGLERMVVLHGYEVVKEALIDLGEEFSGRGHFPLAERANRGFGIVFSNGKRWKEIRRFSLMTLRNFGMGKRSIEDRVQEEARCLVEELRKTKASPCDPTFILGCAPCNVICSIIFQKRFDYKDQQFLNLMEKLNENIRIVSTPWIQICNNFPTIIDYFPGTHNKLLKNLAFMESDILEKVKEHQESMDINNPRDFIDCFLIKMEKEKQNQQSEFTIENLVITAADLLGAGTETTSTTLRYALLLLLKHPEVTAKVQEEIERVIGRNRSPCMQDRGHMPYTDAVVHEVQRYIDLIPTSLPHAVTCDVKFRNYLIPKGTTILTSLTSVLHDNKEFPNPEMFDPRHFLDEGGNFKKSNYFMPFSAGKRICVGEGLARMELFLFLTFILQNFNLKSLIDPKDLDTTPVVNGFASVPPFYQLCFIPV
# T1 sequence (P05181 whole entry): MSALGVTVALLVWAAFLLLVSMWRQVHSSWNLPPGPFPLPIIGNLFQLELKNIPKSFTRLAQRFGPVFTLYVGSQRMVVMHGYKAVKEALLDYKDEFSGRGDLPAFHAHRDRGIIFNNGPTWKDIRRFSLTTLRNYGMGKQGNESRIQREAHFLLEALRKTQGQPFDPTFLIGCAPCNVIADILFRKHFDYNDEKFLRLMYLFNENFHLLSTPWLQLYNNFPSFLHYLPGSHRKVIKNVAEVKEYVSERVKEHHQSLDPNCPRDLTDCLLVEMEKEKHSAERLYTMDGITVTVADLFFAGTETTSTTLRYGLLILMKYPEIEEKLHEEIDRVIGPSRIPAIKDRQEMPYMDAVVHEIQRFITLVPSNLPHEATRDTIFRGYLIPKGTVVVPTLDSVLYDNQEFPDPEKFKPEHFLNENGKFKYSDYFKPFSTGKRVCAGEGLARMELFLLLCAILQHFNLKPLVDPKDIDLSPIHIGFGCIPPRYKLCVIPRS
structure (smiles),measurement,setting,value
"Cc1ncsc1CCCl [CHL, chlormethiazole hydrochloride]",Ki,[1],12 µM
"Cc1c(S(=O)(=O)O)oc2c1C(=O)C(=O)c1c-2ccc2c1CCCC2(C)C [STS, sodium tanshinone IIA sulfonate]",Vmax,"[2]; Fig. 2a, human liver microsomes",0.9
same,Vmax,"[2]; STS metabolism, HLMs 0.5 mg/mL, mean ± SD",0.9 ± 0.1 nmol/mg protein/min
same,Km,"[2]; human, human liver microsomes, pH 7.4",54.8 ± 14.6 µM
same,microsomal CLint,"[2]; human, human liver microsomes, pH 7.4, read-out: in vitro CLint",16 µL/min/mg
same,Vmax,"[3]; Fig. 2b, CYP3A4, printed in picture",6.8
same,in vitro CLint,"[3]; STS with CYP3A4, Vmax/Km",0.902 mL/nmol P450/min
same,inhibitory effect on CYP2A6 activity,"[4]; STS 1–100 µM, HLMs",minimal; also recorded: negligible
same,IC50,"[4]; STS 1–100 µM, coumarin 5 µM, HLMs, read-out: IC50",> 100 µM
same,IC50,[4]; [19],≥ 50 µM
same,inhibitory effect on CYP2C9 activity,"[5]; STS 1–100 µM, HLMs",minimal; also recorded: negligible
same,IC50,"[5]; STS 1–100 µM, tolbutamide 100 µM, HLMs, read-out: IC50",> 100 µM
same,IC50,[5]; [19],≥ 50 µM
same,inhibitory effect on CYP2D6 activity,"[6]; STS 1–100 µM, HLMs",minimal; also recorded: negligible
same,IC50,"[6]; STS 1–100 µM, metoprolol […], HLMs, read-out: IC50",> 100 µM
same,IC50,[6]; [19],≥ 50 µM
same,inhibitory effect on CYP2E1 activity,"[7]; STS 1–100 µM, HLMs",minimal; also recorded: negligible
same,IC50,"[7]; STS 1–100 µM, chlorzoxazone 40 µM, HLMs, read-out: IC50",> 100 µM
same,IC50,[7]; [19],≥ 50 µM
same,inhibitory effect on CYP2C19 activity,"[8]; STS 1–100 µM, HLMs",minimal; also recorded: negligible
same,IC50,"[8]; STS 1–100 µM, S-mephenytoin 100 µM, HLMs, read-out: IC50",> 100 µM
same,IC50,[8]; [19],≥ 50 µM
same,"MCR of STS, of control",[9],37.4%
same,"MCR of STS, of control value","[10]; recombinant CYP3A4, STS 10 µM",58.4%
same,"MCR of STS, of control value","[10]; recombinant CYP3A4, STS 50 µM",29.4%
same,plasma concentration,"[11]; 4 h after the injection ref 15, 16",≤ 20 ng/mL
same,t1/2,"[11]; after injection ref 15, 16",< 54 min
same,maximal STS concentration in liver,"[12]; 5 min after administration ref 15, 16",> 10 µg/mL
same,detection in other tissues,"[12]; 2 h after administration, other tissues ref 15, 16",hardly detected
same,time after administration at which STS could be determined,"[12]; kidney ref 15, 16",4 h
same,time after administration at which STS could be determined,"[12]; liver ref 15, 16",12 h
same,increase of CYP1A2 activity,[13],41.1%
same,inhibitory effect on CYP1A2 activity,"[14]; STS 1–100 µM, HLMs",minimal; also recorded: negligible; also recorded: not an inhibitor
same,IC50,"[14]; STS 1–100 µM, phenacetin 10 µM, HLMs, read-out: IC50",> 100 µM
same,IC50,[14]; [19],≥ 50 µM
same,Ki fold higher than that of KET,"[15]; HLMs, versus reported KET value",approximately 212 fold
same,IC50,"[15]; STS 1–100 µM, midazolam 5 µM, HLMs, brackets = 95 % confidence interval, read-out: IC50",6.4 µM and 6.38 µM
same,IC50,[15]; [19],≤ 10 µM
same,type of inhibition,"[15]; midazolam 1-hydroxylation in HLMs, Dixon / Lineweaver–Burk plots",competitive type of inhibition; also recorded: full competitive inhibition
same,IC50 fold higher than that of KET,"[15]; midazolam 1-hydroxylation, HLMs, versus reported KET values",26.6–79.7 fold
same,Ki,"[15]; midazolam 5–50 µM, STS 0–100 µM, HLMs, competitive model, brackets = 95 % confidence interval",3.18 µM
Cc1coc2c1C(=O)C(=O)c1c-2ccc2c1CCCC2(C)C [tanshinone IIA],Ki,[16],50 nM
same,inhibition of CYP2C9,[17],medium competitive inhibitor
same,Ki,[18],1450 nM
